Key:
[1] = target: T1, Casein kinase II subunit alpha' (Homo sapiens, UniProt P19784); assay: Inhibition of human CK2 alpha' catalytic subunit expressed in Escherichia coli BL21 (DE3) assessed as [33P]gamma-ATP incorporation into P2B substrate after 15 mins by scintillation counting
[2] = target: T1, Casein kinase II subunit alpha'; assay: Inhibition of human CK2 alpha' catalytic subunit expressed in Escherichia coli […] (DE3) assessed as [33P]gamma-ATP incorporation into RRRADDSDDDDD substrate after 15 mins by scintillation counting
[3] = target: T2, Casein kinase II subunit alpha (Homo sapiens, UniProt P68400); assay: Inhibition of human CK2 alpha catalytic subunit expressed in Escherichia coli BL21 (DE3) assessed as [32P]gamma-ATP incorporation into P2B substrate after 15 mins by scintillation counting
T2 sequence (P68400 whole entry): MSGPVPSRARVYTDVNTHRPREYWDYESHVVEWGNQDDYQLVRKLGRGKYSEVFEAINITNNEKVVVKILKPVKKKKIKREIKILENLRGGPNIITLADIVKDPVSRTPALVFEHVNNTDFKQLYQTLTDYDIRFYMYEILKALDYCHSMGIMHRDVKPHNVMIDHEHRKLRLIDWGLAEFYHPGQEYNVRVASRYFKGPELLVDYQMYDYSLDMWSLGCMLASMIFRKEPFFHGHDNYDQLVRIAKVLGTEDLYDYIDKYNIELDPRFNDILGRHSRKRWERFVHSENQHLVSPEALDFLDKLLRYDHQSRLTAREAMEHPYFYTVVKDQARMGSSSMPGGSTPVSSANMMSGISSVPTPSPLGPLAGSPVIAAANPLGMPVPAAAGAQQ

[4] = target: T2, Casein kinase II subunit alpha; assay: Inhibition of human CK2 alpha catalytic subunit expressed in Escherichia coli BL21 (DE3) assessed as [32P]gamma-ATP incorporation into RRRADDSDDDDD substrate after 15 mins by scintillation counting

T1 sequence (P19784 whole entry): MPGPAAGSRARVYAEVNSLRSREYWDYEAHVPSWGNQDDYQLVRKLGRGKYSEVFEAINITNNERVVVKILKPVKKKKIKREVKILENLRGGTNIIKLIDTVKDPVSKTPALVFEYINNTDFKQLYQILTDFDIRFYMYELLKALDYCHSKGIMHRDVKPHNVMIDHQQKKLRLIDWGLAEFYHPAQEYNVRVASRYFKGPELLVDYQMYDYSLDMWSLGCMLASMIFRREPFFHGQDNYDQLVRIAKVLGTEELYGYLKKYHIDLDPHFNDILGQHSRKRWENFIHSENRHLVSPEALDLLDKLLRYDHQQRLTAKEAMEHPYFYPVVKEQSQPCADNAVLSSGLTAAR

Ki [1]	Ki [2]	Ki [3]	Ki [4]	Structure (SMILES)
66 nM	21 nM	88 nM	83 nM	CN(C)c1nc2c(Br)c(Br)c(Br)c(Br)c2n1CC(=O)O
35 nM	31 nM	116 nM	172 nM	O=C(O)CCSc1nc2c(Br)c(Br)c(Br)c(Br)c2[nH]1
88 nM	44 nM	77 nM	210 nM	O=C(O)CCCSc1nc2c(Br)c(Br)c(Br)c(Br)c2[nH]1
200 nM	24 nM	143 nM	13 nM	Cn1c(SCC(=O)O)nc2c(Br)c(Br)c(Br)c(Br)c21
100 nM	55 nM	112 nM	137 nM	Cn1c(SCCC(=O)O)nc2c(Br)c(Br)c(Br)c(Br)c21
83 nM	768 nM	88 nM	501 nM	Cn1c(SCCCC(=O)O)nc2c(Br)c(Br)c(Br)c(Br)c21
188 nM	195 nM	472 nM	368 nM	O=C(O)CCCn1cnc2c(Br)c(Br)c(Br)c(Br)c21
139 nM	93 nM	860 nM	456 nM	CN(C)c1nc2c(Br)c(Br)c(Br)c(Br)c2n1CCCC(=O)O
37 nM	49 nM	106 nM	170 nM	O=C(O)CSc1nc2c(Br)c(Br)c(Br)c(Br)c2[nH]1
270 nM	343 nM	–	–	Brc1c(Br)c(Br)c2[nH]cnc2c1Br
109 nM	35 nM	212 nM	154 nM	CN(C)c1nc2c(Br)c(Br)c(Br)c(Br)c2n1C
62 nM	324 nM	378 nM	261 nM	O=C(O)Cn1cnc2c(I)c(I)c(I)c(I)c21
609 nM	342 nM	798 nM	670 nM	O=C(O)Cn1cnc2c(Br)c(Br)c(Br)c(Br)c21
71 nM	21 nM	266 nM	43 nM	Ic1c(I)c(I)c2[nH]cnc2c1I
78 nM	106 nM	110 nM	80 nM	O=C(O)CSc1nc2c(I)c(I)c(I)c(I)c2[nH]1

Source: ChEMBL document CHEMBL1926659, “CK2α and CK2α' subunits differ in their sensitivity to 4,5,6,7-tetrabromo- and 4,5,6,7-tetraiodo-1H-benzimidazole derivatives” (Eur J Med Chem, 2012)
